# Experimental data: PMC10861593, “Kisspeptin-10 binding to Gpr54 in osteoclasts prevents bone loss by activating Dusp18-mediated dephosphorylation of Src” (Nature Communications, 2024)
# Entries after “also recorded” stand apart in the source; their conditions may differ.
# How the values were obtained:
# Assay type in all cases: cell-based, mouse
# Src (Y416) = test: IB of Src (Y416) phosphorylation in BMMs / osteoclasts; details: for Src phosphorylation: Kp-10 20 min; for phosphorylation of Src (Y416): indicated dose of Kp-10 for 1 h; for phosphorylation of Src: Kp-10 1 h
# Protocol: Fig. 1 Kp-10 /Gpr54 governs osteoclasts formation and bone resorption mainly via suppression of Src phosphorylation. a–d IB analysis of whole cell lysates (WCL) derived from BMMs isolated from eight-week-old wild-type (WT) and Gpr54^−/− mice. BMMs were starved in serum-free α-MEM for 4 h and then treated with 100 ng/mL RANKL for different time (a) and quantification of protein levels (b), incubated with indicated dose of Kp-10 for 1 h (c) and quantification of protein levels (d). e–i BMMs isolated from eight-week-old WT and Gpr54^−/− mice were stimulated with M-CSF (10 ng/ml) and RANKL (50 ng/ml) for 5–7 days. Representative TRAP staining images are shown. Scale bar, 250 µm (e) and the number of osteoclasts/well was counted (f). Phalloidin staining of F-actin ring is shown. Scale bar, 250 µm, 50 µm (g), the area (h) and nuclei numbers (i) per actin ring were counted. j, k BMMs isolated from eight-week-old WT and Gpr54^−/− mice were cultured in vitro on dentin slices, and after incubation with M-CSF (10 ng/ml) and RANKL (50 ng/ml) for 5–7 days, the pits formed by osteoclast absorption activity were scanned by confocal microscopy (x, y, and z sections). Scale bar, 125 µm (j), and pits depth were quantified by confocal microscopy (k). Data represent means ± SEM. P values were determined by two-way ANOVA analysis (b), one-way ANOVA analysis (d, f, k), or two-tailed Student’s t-test (h, i), Representative results were obtained from at least three independent experiments. Source data are provided as a Source Data file.
# (§1) Whole-cell proteins were extracted using 1x RIPA buffer (25 mM Tris, pH7.5, 150 mM NaCl, 0.5% Sodium deoxycholate, 1% Triton-X-100) supplemented with protease inhibitors (Complete Mini, Roche) and phosphatase inhibitors (phosphatase inhibitor cocktail set I and II, Calbiochem). Immunoprecipitation and immunoblotting with indicated antibodies were performed as described in Supplementary Table 1. Image Jsoftware (V1.52) was used for quantification analysis. Uncropped and unprocessed blots are presented in the Supplementary Information file.
# Supplementary Fig. 1 a, b IB analysis of whole cell lysates (WCL) derived from BMMs isolated from eight-week-old wild-type (WT) and Gpr54 ^-/- mice. BMMs were starved in serum-free α-MEM for 4 hours and then treated with indicated doses of Kp-10 for 1 hour and followed by the addition of 50 ng/mL M-CSF, 100 ng/mL RANKL for another 30 minutes (a) and quantification of protein levels (b). c, d Elisa assay showing Kisspeptins derived from the process of osteoblast or osteoclast differentiation in vitro. Kisspeptins normalization was based on the same number of MSCs, BMMs which were seeded on the plates before differentiation stimulation (c), and serum Kisspeptins from Sham (n=8) and OVX (n=7) mice (d). Representative results were obtained from at least three independent experiments. Error bars are ± SEM. P-values were determined by one-way ANOVA analysis (a) or two-tailed Student’s t-test (b). *P <0.05, ***P <0.001, ****P <0.0001. Representative results were obtained from at least three independent experiments. Source data are provided as a Source Data file.
# [1] = system: Gpr54, Src and Dusp18 co-localization; test: IF staining / TIRF microscopy co-localization in pre-osteoclasts; details: 10 nM Kp-10 20 min
# Protocol: For endogenous IF staining, BMMs were seeded on confocal dishes and induced by 50 ng/ml RANKL and 10 ng/ml M-CSF for 2 days, and subsequently incubated with or without Kp-10 for 20 min. Cells were fixed in 10% TCA and incubated with anti-Gpr54 (Cell Signaling Technologies, 13776, 1:100), anti-Dusp18 (Santa Cruz., sc-376923, 1:100), or anti-Src (Cell Signaling Technologies, 2110, 1:400) or anti-Src (Cell Signaling Technologies, 2109, 1:400) overnight. IF staining of membrane colocation of Gpr54 with Src or Dusp18, and Src with Dusp18 were detected by Alexa Fluor™ 594 Tyramide SuperBoost™ Kit (Invitrogen, B40925) and Alexa Fluor™ 488 Tyramide SuperBoost™ Kit (Invitrogen, B40912) according to manufacturer’s instructions. The images were obtained by total internal reflection fluorescence (TIRF) microscopy (Ti2-E + H-TIRF, Nikon).
# Dusp18 expression = test: WB of Dusp18 protein expression in RAW264.7 cells
# From the text: Anti-Flag IP of lysates derived from 293 T cells transfected with GPR54-flag and Src-HA constructs (d) and quantification results (e). Anti-Flag IP of lysates derived from 293 T cells transfected with GPR54-flag and DUSP18-HA constructs (f) and quantification results (g). Anti-Flag IP of lysates derived from 293 T cells transfected with Src-HA, and DUSP18-flag constructs (h) and quantification results (i). j, k IB analysis of lysates derived from WT BMMs and Gq/11 KO BMMs with or without Kp-10 treatment for 1 h (j) and quantification of results (k). l Working model of Kp-10 /Gpr54 mediated Src dephosphorylation. […] However, both active Src and DUSP18 were recruited by GPR54 through the PR motif in GPR54 CT along with the increase of Kp-10 dose (1, 10 nM). […] Data represent means ± SEM. P values were determined by one-way ANOVA analysis (b, c, e, g, i, k). Representative results were obtained from at least three independent experiments. Source data are provided as a Source Data file.
# as §1
# Supplementary Fig. 7 a-b IB and quantification of Dusp18 protein level induced by indicated dose of Kp-10 for 1 hour in RAW264.7 cells (a) and quantification of protein levels (b) or induced by Kp-10 (1nM) for 1 hour in RAW264.7 transfected with ERK1/2 siRNA. Error bars are ± SEM. P-values were determined by one-way ANOVA analysis (b). ****P <0.0001. “ns” means no significant difference. Representative results were observed from at least three independent experiments. Source data are provided as a Source Data file.
substance,measurement,setting,value
Kisspeptin-10 [Kp-10],"Src phosphorylation, 10 nM",Src (Y416); 10 nM Kp-10,more obviously blocked
same,Src phosphorylation,Src (Y416); Dusp18-depleted BMMs,failed to do so
same,phosphorylation of Src (Y416),Src (Y416); Gpr54 WT osteoclasts/BMMs,effectively reduced the phosphorylation of Src (Y416)
same,phosphorylation of Src (Y416),Src (Y416); Gpr54 knockout osteoclasts/BMMs,failed to inhibit Src (Y416) phosphorylation
same,phosphorylation of Src,Src (Y416); Gq/11 KO BMMs,failed to have a significant effect
same,phosphorylation of Src,Src (Y416); WT BMMs (Gq/11 experiment),inhibited the phosphorylation of Src
same,Src phosphorylation,Src (Y416); WT pre-osteoclasts/BMMs (Dusp18 experiment),blocked Src phosphorylation
same,co-localization of Dusp18 with Gpr54 in the plasma membrane,[1],colocalized with Gpr54 in the plasma membrane especially after treatment of Kp-10
same,co-localization of Dusp18 with Src in the plasma membrane,[1],colocalized with Src in the plasma membrane especially after treatment with Kp-10
same,co-localization of Src with Gpr54 on the membrane,[1],co-localized on the membrane with Gpr54 especially after Kp-10 stimulation
same,protein level of Dusp18 upon ERK1/2 siRNA,"Dusp18 expression; RAW264.7, ERK1/2 siRNA, Kp-10 (1 nM) 1 h",cannot be obviously up-regulated
same,"expression of Dusp18 (protein), 10 nM","Dusp18 expression; RAW264.7, Kp-10 10 nM for 1 h",not by 10 nM Kp-10
same,"expression of Dusp18 (protein), 0.1 and 1 nM","Dusp18 expression; RAW264.7, Kp-10 0.1, 1 nM for 1 h",obviously upregulated the expression of Dusp18; also recorded: induced the expression of Dusp18 obviously
